Measurements published in PubChem BioAssay (NCI).
Where “and” joins values, the source holds several entries; their conditions need not be identical. Identical values can stand only once.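 In this assay, cells in 96-well plates receive the compound at five concentrations for 48 hours. Endpoints are linearly interpolated between the surrounding concentrations. GI50 is the concentration that inhibits growth by half. TGI: concentration producing complete growth inhibition.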

Legend:
Experiment in all cases: NCI tumour cell line growth inhibition, 48 h
[1] = system: 786-0 renal
[2] = system: A498 renal
[3] = system: A549 NSCLC
[4] = system: ACHN renal
[5] = system: CAKI-1 renal
[6] = system: CCRF-CEM leukemia
[7] = system: COLO 205 colon
[8] = system: DU-145 prostate
[9] = system: EKVX NSCLC
[10] = system: HCC-2998 colon
[11] = system: HCT-116 colon
[12] = system: HCT-15 colon
[13] = system: HL-60(TB) leukemia
[14] = system: HOP-62 NSCLC
[15] = system: HOP-92 NSCLC
[16] = system: HS 578T breast
[17] = system: HT29 colon
[18] = system: IGROV1 ovarian
[19] = system: K-562 leukemia
[20] = system: KM12 colon
[21] = system: LOX IMVI melanoma
[22] = system: M14 melanoma
[23] = system: MALME-3M melanoma
[24] = system: MCF7 breast
[25] = system: MDA-MB-231 breast
[26] = system: MDA-MB-435
[27] = system: MDA-N
[28] = system: MOLT-4 leukemia
[29] = system: NCI-H226 lung
[30] = system: NCI-H23 lung
[31] = system: NCI-H460 lung
[32] = system: NCI-H522 lung
[33] = system: NCI/ADR-RES ovarian
[34] = system: OVCAR-3 ovarian
[35] = system: OVCAR-4 ovarian
[36] = system: OVCAR-5 ovarian
[37] = system: OVCAR-8 ovarian
[38] = system: PC-3 prostate
[39] = system: RPMI-8226 leukemia
[40] = system: RXF 393 renal
[41] = system: SF-268 CNS
[42] = system: SF-295 CNS
[43] = system: SF-539 CNS
[44] = system: SK-MEL-2 melanoma
[45] = system: SK-MEL-28 melanoma
[46] = system: SK-MEL-5 melanoma
[47] = system: SK-OV-3 ovarian
[48] = system: SN12C renal
[49] = system: SNB-19 CNS
[50] = system: SNB-75 CNS
[51] = system: SR leukemia
[52] = system: SW-620 colon
[53] = system: T-47D breast
[54] = system: TK-10 renal
[55] = system: U251 CNS
[56] = system: UACC-257 melanoma
[57] = system: UO-31 renal
[58] = system: BT-549 breast

COc1cc(C(=O)OC2CC(C)=CC[C@@]3(C)CC[C@](O)(C(C)C)C23)ccc1O (some centres not stated)
TGI [1]: 31.3 µM
TGI [2]: 33.7 µM
TGI [3]: 27.7 µM
TGI [4]: 32.6 µM
TGI [5]: 30.4 µM
TGI [6]: 69 µM
TGI [7]: 39 µM
TGI [8]: 32.4 µM
TGI [9]: 34.6 µM
TGI [10]: 28.8 µM
TGI [11]: 33.1 µM
TGI [12]: 35.3 µM
TGI [13]: > 100 µM
TGI [14]: 32.4 µM
TGI [15]: 30.5 µM
TGI [16]: 40.9 µM
TGI [17]: 29.8 µM
TGI [18]: 33.4 µM
TGI [19]: 38.3 µM
TGI [20]: 29.9 µM
TGI [21]: 30.6 µM
TGI [22]: 33.1 µM
TGI [23]: 34.3 µM
TGI [24]: 28.9 µM
TGI [25]: 30.5 µM
TGI [26]: > 100 µM
TGI [27]: 35.2 µM
TGI [28]: 40.6 µM
TGI [29]: 32.5 µM
TGI [30]: 32.6 µM
TGI [31]: 32.5 µM
TGI [32]: 28 µM
TGI [33]: 37.6 µM
TGI [34]: 35.5 µM
TGI [35]: 30 µM
TGI [36]: 32.6 µM
TGI [37]: 36.6 µM
TGI [38]: 31.9 µM
TGI [39]: 53.1 µM
TGI [40]: 35.4 µM
TGI [41]: 38.7 µM
TGI [42]: 51.9 µM
TGI [43]: 29.7 µM
TGI [44]: 33.2 µM
TGI [45]: 60.2 µM
TGI [46]: 32.8 µM
TGI [47]: 29.1 µM
TGI [48]: 37.2 µM
TGI [49]: 35.8 µM
TGI [50]: 33.5 µM
TGI [51]: 84.1 µM
TGI [52]: 55.3 µM
TGI [53]: 47.6 µM
TGI [54]: 30.1 µM
TGI [55]: 67 µM
TGI [56]: 29.6 µM
TGI [57]: 30.4 µM

O=c1[nH]cc(F)c(=O)[nH]1
GI50 [2]: 4.81 µM and 5.2 µM
GI50 [58]: 7.32 µM and 6.94 µM and 27.1 µM
TGI [58]: > 100 µM and 2090 µM and > 1390 µM
GI50 [6]: 9.86 µM and 8.53 µM
TGI [6]: 1990 µM and > 1040 µM
TGI [8]: > 100 µM and 2160 µM and > 2500 µM
TGI [9]: > 100 µM and 2250 µM and > 2500 µM
TGI [13]: > 100 µM and 1560 µM and 298 µM
TGI [15]: > 100 µM and 2040 µM and > 2500 µM
GI50 [16]: > 100 µM and 14.3 µM
TGI [16]: > 100 µM and 2250 µM and > 1170 µM
GI50 [18]: 6.13 µM and 2.37 µM and 20.6 µM
GI50 [19]: 4.75 µM and 12 µM
TGI [19]: 2190 µM and > 1830 µM
TGI [27]: 2390 µM and > 2500 µM
GI50 [28]: 6.25 µM and 0.871 µM
GI50 [29]: 23.9 µM and 59.6 µM and 186 µM
TGI [29]: > 100 µM and 2170 µM and > 2500 µM
GI50 [32]: 11 µM and 11.5 µM and 82.9 µM
TGI [38]: > 100 µM and 2250 µM and > 2500 µM
GI50 [40]: 25.9 µM and 2.91 µM and 23.8 µM
TGI [41]: > 100 µM and 2280 µM and > 2500 µM
GI50 [42]: 6.45 µM and 0.721 µM
TGI [44]: > 100 µM and 2190 µM and > 2500 µM
GI50 [45]: 5.99 µM and 1.5 µM
TGI [50]: > 100 µM and 1990 µM and 2430 µM
GI50 [51]: 1.26 µM and 0.514 µM
TGI [51]: > 100 µM and > 33.4 µM and 609 µM
TGI [52]: > 100 µM and 2440 µM and > 2360 µM
GI50 [53]: 7.97 µM and 9.73 µM and 17.6 µM
